{"source": "patent US11452731B2", "about": "“Method of treating and preventing loss of cognition” (ENDORECHERCHE, INC., priority 2009, dated 2022)", "key": {"[1]": {"assay": "26-week treatment of ovariectomized rats: lumbar spine BMD, total body fat, serum cholesterol, ALP (Example 4, experiment 2)", "type": "in vivo, rat", "conditions": "OVX rats, 26 weeks", "experimental": "Ten to twelve week-old female Sprague-Dawley rats (Crl:CD(SD)Br) (Charles River Laboratory, St-Constant, Canada) weighing approximately 220-270 g at start of treatment were used. […] The animals were housed individually and were allowed free access to tap water and a pelleted certified rodent feed (Lab Diet 5002, Ralston Purina, St-Louis, Mo.). Experiments were conducted in an animal facility approved by the Canadian Council on Animal Care (CCAC) and the Association for Assessment and Accreditation of Laboratory Animal Care (AAALAC) in accordance with the CCAC Guide for Care and Use of Experimental Animals. […] Treatments were initiated on day 2 of the study and were performed once daily during 26 weeks. In both experiments, animals not receiving a test article were treated with the appropriate vehicle alone during the same period. […] QDR 4500A, Hologic, Waltham, Mass.) and a Regional High Resolution Scan software. […] Samples were processed for serum preparation and frozen at -80° C. until assay. Serum cholesterol levels and alkaline phospatase activity (ALP) were determined using the Boehringer Mannheim Diagnostic Hitachi 911 Analyzer (Boehringer Mannheim Diagnostic Laboratory Systems)."}, "[2]": {"system": "MCF-7 human breast cancer cells", "assay": "Proliferation (DNA content) of human breast cancer MCF-7 cells (Example 7)", "type": "cell-based", "conditions": "for IC50: Homo sapiens, read-out: Inhibition of 1 nM E2 stimulation of DNA by tested compounds IC50", "source_text": "MCF-7 human breast cancer cells were obtained from the American Type Culture Collection #HTB 22 at passage 147 and routinely grown in phenol red-free Dulbecco's Modified Eagle's-Ham's F12 medium, the supplements mentioned above and 5% FBS. The MCF-7 human breast adenocarcinoma cell line was derived from the pleural effusion of a patient. MCF-7 cells were used between passages 148 and 165 and subcultured weekly\nThereafter, medium was replaced with fresh medium containing the indicated concentrations of compounds diluted from 1000×stock solutions in 99% redistilled ethanol in the presence or absence of E2. Control cells received only the ethanolic vehicle (0.1% EtOH, v/v). Cells were incubated for the specified time intervals with medium changes at 2- or 3-day intervals. Cell number was determined by measurement of DNA content.\nAll results are expressed as means±SEM."}, "[3]": {"system": "ZR-75-1 human breast cancer xenografts", "assay": "Growth and response of human ZR-75-1 breast tumors in OVX nude mice, 7 antiestrogens for 161 days with or without estrone (Example 8)", "type": "in vivo", "summary_of_the_method": "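ZR-75-1 xenografts were grown in ovariectomized nude mice, with estrone implants removed in the OVX control and antiestrogen-alone groups. Antiestrogens were given as suspensions for 161 days. Tumor area came from two perpendicular diameters, and response was assessed at study end using mice surviving at least 84 days.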"}, "[4]": {"system": "human Ishikawa cells", "assay": "Alkaline phosphatase activity in human endometrial adenocarcinoma Ishikawa cells (Example 6)"}, "[5]": {"assay": "12-month treatment of ovariectomized rats with DHEA alone or with Flutamide or EM-800: bone histomorphometry, bone markers, serum lipids", "type": "in vivo, rat", "conditions": "12 months"}, "[6]": {"assay": "Clinical trial ERC-213: DHEA vaginal suppositories for 7 days, maturation index and vaginal pH in postmenopausal women (Example 11)", "type": "in vivo", "experimental": "Data are expressed as means±SEM (n=9 or 10). *, p<0.05, **, p<0.01, Data on Day 7 versus Data on Day 1.\nThe primary objective of that study was measurement of the maturation value of the vaginal epithelial cells following daily intravaginal application of DHEA. Forty postmenopausal women were randomized to receive a daily dose of one ovule of the following DHEA concentrations: 0.0%, 0.5% (6.5 mg of DHEA/ovule), 1.0% (13 mg of DHEA/ovule) or 1.8% (23.4 mg of DHEA/ovule) for 7 days. The systemic bioavailability of DHEA and its metabolites were also measured."}, "[7]": {"conditions": "Premarin 0.25 mg/kg, SERMs 2.5 mg/kg"}, "[8]": {"conditions": "estrone-supplemented, 50 μg daily, 161 days"}}, "note": "Read-outs that look alike come from different tables or passages of the source.", "data": [{"smiles": "CC1=C(c2ccc(O)cc2)[C@H](c2ccc(OCCN3CCCCC3)cc2)Oc2cc(O)ccc21.Cl", "note": "[EM-652.HCl, (S)-(+)-7-hydroxy-3-(4′-hydroxyphenyl)-4-methyl-2-(4″-(2′″-piperidinoethoxy)phenyl)-2H-1-benzopyran hydrochloride]", "values": [{"measurement": "ALP", "setting": "[1]", "value": "78 ± 4", "unit": "IU"}, {"measurement": "CHOLESTEROL (serum)", "setting": "[1]", "value": "0.98 ± 0.06", "unit": "mmol/L"}, {"measurement": "TOTAL FAT", "setting": "[1]", "value": "27.7 ± 1.4", "unit": "%"}, {"measurement": "reversal of the fat increase induced by estrogen deficiency", "setting": "[1]", "value": 78, "unit": "%"}, {"measurement": "LUMBAR SPINE BMD", "setting": "[1]; [7]", "value": "0.2311 ± 0.0040", "unit": "g/cm^2"}, {"measurement": "LUMBAR SPINE Prevention of Bone Loss", "setting": "[1]; [7]", "value": 62, "unit": "%"}, {"measurement": "IC50", "setting": "[2]; MCF7, MCF-7, Experiment 1", "value": 0.796, "unit": "nM"}, {"measurement": "IC50", "setting": "[2]; MCF7, MCF-7, Experiment 2", "value": 0.205, "unit": "nM"}, {"measurement": "Maximal stimulation of DNA by tested compounds % of 1 nM E2 stimulation", "setting": "[2]; MCF-7, Experiment 1", "value": "N.S."}, {"measurement": "Stimulation of DNA by tested compounds % of 1 nM E2 stimulation", "setting": "[2]; MCF-7, Experiment 2", "value": "N.S."}, {"measurement": "increase of average tumor size over baseline (agonistic effect)", "setting": "[3]; absence of estrone, 200 μg daily, 161 days", "value": "did not significantly change"}, {"measurement": "tumor size lower than the initial value at start of treatment", "setting": "[3]; estrone-stimulated, 50 μg oral daily, 23 weeks", "value": 26, "unit": "%"}, {"measurement": "complete response, % of tumors", "setting": "[3]; [8]", "value": 17, "unit": "%"}, {"measurement": "partial response, % of tumors", "setting": "[3]; [8]", "value": 17, "unit": "%"}, {"measurement": "progressing tumors, % of tumors", "setting": "[3]; [8]", "value": 7, "unit": "%"}, {"measurement": "stable response, % of tumors", "setting": "[3]; [8]", "value": 60, "unit": "%"}, {"measurement": "IC50", "setting": "[4]; Homo sapiens, Ishikawa, 120 h, read-out: Inhibition of 1 nM E2-induced stimulation of alkaline phosphatase IC50", "value": "1.52 ± 0.22", "unit": "nM"}, {"measurement": "Emax", "setting": "[4]; Homo sapiens, Ishikawa, 120 h, read-out: Maximal stimulation of alkaline phosphatase % of 1 nM E2 stimulation", "value": "1.88 ± 0.26", "unit": "%"}, {"measurement": "Maximal inhibition of 1 nM E2-induced stimulation of alkaline phosphatase", "setting": "[4]; Ishikawa cells, 5-day incubation, 1 nM E2", "value": "98.97 ± 0.174 (18)"}]}, {"smiles": "C[C@]12CC[C@H](O)CC1=CC[C@@H]1[C@@H]2CC[C@]2(C)C(=O)CC[C@@H]12", "note": "[DHEA, dehydroepiandrosterone]", "values": [{"measurement": "reduction of serum cholesterol versus OVX control", "setting": "[5]", "value": 22, "unit": "%"}, {"measurement": "Alkaline phosphatase (serum)", "setting": "[5]; OVX rats", "value": "201±25", "unit": "IU/L"}, {"measurement": "CHOLESTEROL (serum)", "setting": "[5]; OVX rats", "value": "1.78 ± 0.16", "unit": "mmol/L"}, {"measurement": "OH-proline/creatinin (urine)", "setting": "[5]; OVX rats", "value": "7.3±1.0", "unit": "μmol/mmol"}, {"measurement": "Triglycerides (serum)", "setting": "[5]; OVX rats", "value": "0.8 ± 0.1", "unit": "mmol/L"}, {"measurement": "increase in trabecular bone number compared to ovariectomized controls", "setting": "[5]; OVX rats", "value": 137, "unit": "%"}, {"measurement": "trabecular bone number", "setting": "[5]; OVX rats", "value": "1.27±0.1", "unit": "per mm"}, {"measurement": "trabecular bone volume of the tibia", "setting": "[5]; OVX rats", "value": "11.9±0.6", "unit": "%"}, {"measurement": "increase of maturation index, Day 7 versus Day 1", "setting": "[6]; 0.5% DHEA vaginal suppository daily", "value": 107, "unit": "%"}, {"measurement": "Vaginal pH", "setting": "[6]; 0.5% DHEA, Day 1 (before)", "value": "6.29±0.21"}, {"measurement": "Vaginal pH", "setting": "[6]; 0.5% DHEA, Day 7", "value": "5.75±0.27"}, {"measurement": "increase of maturation index, Day 7 versus Day 1", "setting": "[6]; 1.0% DHEA vaginal suppository daily", "value": 75, "unit": "%"}, {"measurement": "Vaginal pH", "setting": "[6]; 1.0% DHEA, Day 1 (before)", "value": "6.47±0.23"}, {"measurement": "Vaginal pH", "setting": "[6]; 1.0% DHEA, Day 7", "value": "5.76±0.22"}, {"measurement": "increase of maturation index, Day 7 versus Day 1", "setting": "[6]; 1.8% DHEA vaginal suppository daily", "value": 150, "unit": "%"}, {"measurement": "Vaginal pH", "setting": "[6]; 1.8% DHEA, Day 1 (before)", "value": "6.53±0.25"}, {"measurement": "Vaginal pH", "setting": "[6]; 1.8% DHEA, Day 7", "value": "5.86±0.28"}]}]}
